In patent publication US8461186B2, “Use of N-piperidine derivatives for the treatment of neurodegenerative pathologies” (Medestea Research & Production S.p.A., priority 2004, dated 2013):

Tests used:
[1] = tested on: rats receiving Paraquat into Substantia Nigra; type: in vivo, rat
Source text: The Paraquat/rat/PS experimental model was therefore selected as the most indicative for checking the efficacy of chemical compounds according to the present invention; of these, two anti-oxidants designated MP1002 and MP1001 were used in the tests:
Male Sprague Dawley rats (210-220 g weight) were kept on a standard laboratory diet supplemented with “Nossan Pellets” (both the animals and the pellets are available from Nossan Company, Milan, Italy) and were housed for three weeks (relative humidity 50%±10%, temperature 22° C.±1 and in a light/darkness cycle of 12 hours/12 hours, with first light at 7.30 a.m.) prior to the tests; food and water were available ad libitum.
Prior to treatment, the rats were anaesthetized by intraperitoneal injection of 380 mg/kg weight of chloral hydrate; a stainless steel guide cannula (size 25) was implanted unilaterally in the Substantia Nigra with stereotaxic guiding and was secured to the cranium with dental acrylic material.
The animals (20 per test group) were allowed a recovery period of seven days prior to treatment; during this period no change in motor activity or posture was observed. Microinfusions were performed by means of a 10 μl Hamilton syringe connected to an injection cannula by means of a Teflon tube. The compounds or the vehicle (0.8% NaCl) were injected at a total volume of 1 μl/minute.
Microinfusion of 50 μg of Paraquat into the Substantia Nigra (n=20 rats) led to an increase in motor activity with the animals performing jumps and moving in circles in a contralateral direction relative to the injection position, about 24 minutes later; all of the animals were dead 24±2.5 hours after infusion. A further twenty animals were infused with Paraquat and twenty with Paraquat plus vehicle; about ten of the animals for each group survived 20 hours after treatment and were used to determine the development of lipid peroxidation in the Substantia Nigra.

[2] = tested on: lipid peroxidation in the Substantia Nigra; type: in vivo; conditions: Substantia Nigra, 20 hours after Paraquat alone, 50 μg microinfusion
Protocol: Microinfusion of 50 μg of Paraquat into the Substantia Nigra (n=20 rats) led to an increase in motor activity with the animals performing jumps and moving in circles in a contralateral direction relative to the injection position, about 24 minutes later; all of the animals were dead 24±2.5 hours after infusion. […]
[…]. Enzymol. 52, 302-310, 1978.

[3] = 50 μg Paraquat into the Substantia Nigra, n=20 rats
[4] = Paraquat alone, 50 μg microinfusion into Substantia Nigra

C[n+]1ccc(-c2cc[n+](C)cc2)cc1 [Paraquat, reference compound]
time after infusion at which all of the animals were dead [1, 3]: 24 ± 2.5 h | time to increase in motor activity (jumps, contralateral circling) after microinfusion [1, 3]: about 24 minutes | Duration (seizures) [1, 4]: 270 ± 15 min | Latency (seizures) [1, 4]: 25 ± 4 min | Mortality [1, 4]: 100 (20/20) % | Lipid Peroxidation [2]: 14.6 ± 1.34 nmol MDA × h^−1 × mg prot^−1
